Test results as given in US6995185B2, “Δ1-pyrrolines used as pesticides” (Bayer Cropscience AG, priority 2000, dated 2006).

Assay: log P determination by HPLC on reversed-phase column (C 18), EEC directive 79/831 Annex V.A8
Type: physicochemical
Settings: pH 2.3 (marked a), 0.1% aqueous phosphoric acid/acetonitrile, 43° C.
Protocol: The log P values given in the tables and Preparation Examples above are determined in accordance with EEC directive 79/831 Annex V.A8 by HPLC (High Performance Liquid Chromatography) using a reversed-phase column (C 18). Temperature: 43° C. In the acidic range, the determination is carried out at pH 2.3 using the mobile phases 0.1% aqueous phosphoric acid and acetonitrile; linear gradient from 10% acetonitrile to 90% acetonitrile (marked^a) in the table). In the neutral range, the determination is carried out at pH 7.5 using the mobile phases 0.01-molar aqueous phosphate buffer solution and acetonitrile; linear gradient from 10% acetonitrile to 90% acetonitrile (marked^b) in the table). Calibration is carried out using unbranched alkan-2-ones (having 3 to 16 carbon atoms) with known log P values (determination of the log P values by the retention times using linear interpolation between two successive alkanones).

log P | SMILES
6.28^a) | CC1CCC(OC(=O)[C@H]2CC(c3c(F)cccc3F)=NC2c2ccc(-c3ccc(OC(F)(F)F)cc3)cc2)CC1 (stereo partly drawn) [Example 49]

Same assay, conditions: reversed-phase HPLC column (C 18), pH 2.3, pH 2.3 (marked a), 0.1% aqueous phosphoric acid/acetonitrile, 43° C.

SMILES | chromatographic logP
COC(=O)[C@H]1CC(c2ccccc2Cl)=N[C@H]1c1ccc(-c2ccc(OC(F)(F)F)cc2)cc1 (racemic) [Example 5, methyl ((2S, 3R), (2R, 3S))-5-(2-chlorophenyl)-2-[4′-(trifluoromethoxy)-1,1′-biphenyl-4-yl]-3,4-dihydro-2H-pyrrole-3-carboxylate] | 5.05
CCCCCCOC(=O)[C@H]1CC(c2c(F)cccc2F)=NC1c1ccc(-c2ccc(OC(F)(F)F)cc2)cc1 (stereo partly drawn) [Example 15] | 6.11
O=C(OC1CCCC1)[C@H]1CC(c2c(F)cccc2F)=NC1c1ccc(-c2ccc(OC(F)(F)F)cc2)cc1 (stereo partly drawn) [Example 18] | 5.47
O=C(OC1CCCCC1)[C@H]1CC(c2c(F)cccc2F)=NC1c1ccc(-c2ccc(OC(F)(F)F)cc2)cc1 (stereo partly drawn) [Example 19] | 5.85
CC(C)C(C)OC(=O)[C@H]1CC(c2c(F)cccc2F)=NC1c1ccc(-c2ccc(OC(F)(F)F)cc2)cc1 (stereo partly drawn) [Example 22] | 5.71
CCC(CC)OC(=O)[C@H]1CC(c2c(F)cccc2F)=NC1c1ccc(-c2ccc(OC(F)(F)F)cc2)cc1 (stereo partly drawn) [Example 23] | 5.78
CC(C)(COC(=O)[C@H]1CC(c2c(F)cccc2F)=NC1c1ccc(-c2ccc(OC(F)(F)F)cc2)cc1)[N+](=O)[O-] (stereo partly drawn) [Example 32] | 4.77
COC(=O)[C@@H](C)COC(=O)[C@H]1CC(c2c(F)cccc2F)=NC1c1ccc(-c2ccc(OC(F)(F)F)cc2)cc1 (stereo partly drawn) [Example 39] | 4.67
COC(=O)[C@H](C)COC(=O)[C@H]1CC(c2c(F)cccc2F)=NC1c1ccc(-c2ccc(OC(F)(F)F)cc2)cc1 (stereo partly drawn) [Example 40] | 4.67
O=C(OCC1CCCCC1)[C@H]1CC(c2c(F)cccc2F)=NC1c1ccc(-c2ccc(OC(F)(F)F)cc2)cc1 (stereo partly drawn) [Example 41] | 6.28
O=C(OCCCN1CCCC1=O)[C@H]1CC(c2c(F)cccc2F)=NC1c1ccc(-c2ccc(OC(F)(F)F)cc2)cc1 (stereo partly drawn) [Example 45] | 3.72
CC(C)N(C(=O)COC(=O)[C@H]1CC(c2c(F)cccc2F)=NC1c1ccc(-c2ccc(OC(F)(F)F)cc2)cc1)c1ccc(F)cc1 (stereo partly drawn) [Example 46] | 4.98
CC1CCC(OC(=O)[C@H]2CC(c3c(F)cccc3F)=NC2c2ccc(-c3ccc(OC(F)(F)F)cc3)cc2)CC1 (stereo partly drawn) [Example 48] | 6.22
CC(OC(=O)[C@H]1CC(c2c(F)cccc2F)=NC1c1ccc(-c2ccc(OC(F)(F)F)cc2)cc1)C1CCCCC1 (stereo partly drawn) [Example 50] | 6.54
O=C(OC1CCCc2ccccc21)[C@H]1CC(c2c(F)cccc2F)=NC1c1ccc(-c2ccc(OC(F)(F)F)cc2)cc1 (stereo partly drawn) [Example 51] | 5.97
O=C(OC1CCc2ccccc21)[C@H]1CC(c2c(F)cccc2F)=NC1c1ccc(-c2ccc(OC(F)(F)F)cc2)cc1 (stereo partly drawn) [Example 52] | 5.71
CCNC(=O)[C@H]1CC(c2c(F)cccc2F)=NC1c1ccc(-c2ccc(OC(F)(F)F)cc2)cc1 (stereo partly drawn) [Example 59] | 3.49
CCCNC(=O)[C@H]1CC(c2c(F)cccc2F)=NC1c1ccc(-c2ccc(OC(F)(F)F)cc2)cc1 (stereo partly drawn) [Example 60] | 3.78
CCCCNC(=O)[C@H]1CC(c2c(F)cccc2F)=NC1c1ccc(-c2ccc(OC(F)(F)F)cc2)cc1 (stereo partly drawn) [Example 61] | 4.03
CCCCCNC(=O)[C@H]1CC(c2c(F)cccc2F)=NC1c1ccc(-c2ccc(OC(F)(F)F)cc2)cc1 (stereo partly drawn) [Example 62] | 4.37
CCCCCCNC(=O)[C@H]1CC(c2c(F)cccc2F)=NC1c1ccc(-c2ccc(OC(F)(F)F)cc2)cc1 (stereo partly drawn) [Example 63] | 4.67
CC(C)NC(=O)[C@H]1CC(c2c(F)cccc2F)=NC1c1ccc(-c2ccc(OC(F)(F)F)cc2)cc1 (stereo partly drawn) [Example 64] | 3.74
CC(C)(C)NC(=O)[C@H]1CC(c2c(F)cccc2F)=NC1c1ccc(-c2ccc(OC(F)(F)F)cc2)cc1 (stereo partly drawn) [Example 65] | 4.23
O=C(NC1CCCCC1)[C@H]1CC(c2c(F)cccc2F)=NC1c1ccc(-c2ccc(OC(F)(F)F)cc2)cc1 (stereo partly drawn) [Example 66] | 4.37
CN(C)C(=O)[C@H]1CC(c2c(F)cccc2F)=NC1c1ccc(-c2ccc(OC(F)(F)F)cc2)cc1 (stereo partly drawn) [Example 67] | 3.61
CCN(C)C(=O)[C@H]1CC(c2c(F)cccc2F)=NC1c1ccc(-c2ccc(OC(F)(F)F)cc2)cc1 (stereo partly drawn) [Example 68] | 3.9
CCCN(C)C(=O)[C@H]1CC(c2c(F)cccc2F)=NC1c1ccc(-c2ccc(OC(F)(F)F)cc2)cc1 (stereo partly drawn) [Example 69] | 4.23

The next lines start with the values.

chromatographic logP | SMILES
4.73 | CCOC(=O)[C@H]1CC(c2c(F)cccc2F)=NC1c1ccc(-c2ccc(OC(F)(F)F)cc2)cc1 (stereo partly drawn) [Example 10]
3.35 | O=C(O)[C@H]1CC(c2c(F)cccc2F)=NC1c1ccc(-c2ccc(OC(F)(F)F)cc2)cc1 (stereo partly drawn) [Example 11]
5.05 | CC(C)OC(=O)[C@H]1CC(c2c(F)cccc2F)=NC1c1ccc(-c2ccc(OC(F)(F)F)cc2)cc1 (stereo partly drawn) [Example 12]
5.41 | CCCCOC(=O)[C@H]1CC(c2c(F)cccc2F)=NC1c1ccc(-c2ccc(OC(F)(F)F)cc2)cc1 (stereo partly drawn) [Example 14]
5.4 | CCC(C)OC(=O)[C@H]1CC(c2c(F)cccc2F)=NC1c1ccc(-c2ccc(OC(F)(F)F)cc2)cc1 (stereo partly drawn) [Example 16]
5.38 | CC(C)COC(=O)[C@H]1CC(c2c(F)cccc2F)=NC1c1ccc(-c2ccc(OC(F)(F)F)cc2)cc1 (stereo partly drawn) [Example 17]
5.84 | CCCCCOC(=O)[C@H]1CC(c2c(F)cccc2F)=NC1c1ccc(-c2ccc(OC(F)(F)F)cc2)cc1 (stereo partly drawn) [Example 20]
5.78 | CC(C)(C)COC(=O)[C@H]1CC(c2c(F)cccc2F)=NC1c1ccc(-c2ccc(OC(F)(F)F)cc2)cc1 (stereo partly drawn) [Example 21]
4.37 | COCCOC(=O)[C@H]1CC(c2c(F)cccc2F)=NC1c1ccc(-c2ccc(OC(F)(F)F)cc2)cc1 (stereo partly drawn) [Example 24]
4.08 | N#CCCOC(=O)[C@H]1CC(c2c(F)cccc2F)=NC1c1ccc(-c2ccc(OC(F)(F)F)cc2)cc1 (stereo partly drawn) [Example 25]
5.48 | C=CCCCOC(=O)[C@H]1CC(c2c(F)cccc2F)=NC1c1ccc(-c2ccc(OC(F)(F)F)cc2)cc1 (stereo partly drawn) [Example 26]
5.48 | C=C(C)CCOC(=O)[C@H]1CC(c2c(F)cccc2F)=NC1c1ccc(-c2ccc(OC(F)(F)F)cc2)cc1 (stereo partly drawn) [Example 27]
4.87 | O=C(OCc1ccoc1)[C@H]1CC(c2c(F)cccc2F)=NC1c1ccc(-c2ccc(OC(F)(F)F)cc2)cc1 (stereo partly drawn) [Example 28]
4.23 | N#CCOC(=O)[C@H]1CC(c2c(F)cccc2F)=NC1c1ccc(-c2ccc(OC(F)(F)F)cc2)cc1 (stereo partly drawn) [Example 29]
4.18 | N#CCCCOC(=O)[C@H]1CC(c2c(F)cccc2F)=NC1c1ccc(-c2ccc(OC(F)(F)F)cc2)cc1 (stereo partly drawn) [Example 30]
5.55 | O=C(OC/C=C/c1ccccc1)[C@H]1CC(c2c(F)cccc2F)=NC1c1ccc(-c2ccc(OC(F)(F)F)cc2)cc1 (stereo partly drawn) [Example 31]
5.78 | O=C(OCCCc1ccccc1)[C@H]1CC(c2c(F)cccc2F)=NC1c1ccc(-c2ccc(OC(F)(F)F)cc2)cc1 (stereo partly drawn) [Example 33]
5.31 | O=C(OCc1ccccc1)[C@H]1CC(c2c(F)cccc2F)=NC1c1ccc(-c2ccc(OC(F)(F)F)cc2)cc1 (stereo partly drawn) [Example 34]
5.65 | O=C(OCc1ccccc1Cl)[C@H]1CC(c2c(F)cccc2F)=NC1c1ccc(-c2ccc(OC(F)(F)F)cc2)cc1 (stereo partly drawn) [Example 35]
5.58 | O=C(OCc1cccc(Cl)c1)[C@H]1CC(c2c(F)cccc2F)=NC1c1ccc(-c2ccc(OC(F)(F)F)cc2)cc1 (stereo partly drawn) [Example 36]
5.54 | CC(OC(=O)[C@H]1CC(c2c(F)cccc2F)=NC1c1ccc(-c2ccc(OC(F)(F)F)cc2)cc1)c1ccccc1 (stereo partly drawn) [Example 38]
5.21 | O=C(OCCOc1ccccc1)[C@H]1CC(c2c(F)cccc2F)=NC1c1ccc(-c2ccc(OC(F)(F)F)cc2)cc1 (stereo partly drawn) [Example 42]
5.19 | O=C(OCc1cccs1)[C@H]1CC(c2c(F)cccc2F)=NC1c1ccc(-c2ccc(OC(F)(F)F)cc2)cc1 (stereo partly drawn) [Example 43]
5.14 | O=C(OCc1ccsc1)[C@H]1CC(c2c(F)cccc2F)=NC1c1ccc(-c2ccc(OC(F)(F)F)cc2)cc1 (stereo partly drawn) [Example 44]
4.82 | O=C(OCc1ccc(Cl)nc1)[C@H]1CC(c2c(F)cccc2F)=NC1c1ccc(-c2ccc(OC(F)(F)F)cc2)cc1 (stereo partly drawn) [Example 47]
4.13 | O=C(OCc1ccccn1)[C@H]1CC(c2c(F)cccc2F)=NC1c1ccc(-c2ccc(OC(F)(F)F)cc2)cc1 (stereo partly drawn) [Example 53]
3.59 | O=C(OCc1cccnc1)[C@H]1CC(c2c(F)cccc2F)=NC1c1ccc(-c2ccc(OC(F)(F)F)cc2)cc1 (stereo partly drawn) [Example 54]
5.74 | CC(C)[C@H](C)OC(=O)[C@H]1CC(c2c(F)cccc2F)=NC1c1ccc(-c2ccc(OC(F)(F)F)cc2)cc1 (stereo partly drawn) [Example 55]
5.65 | CC(C)[C@@H](C)OC(=O)[C@H]1CC(c2c(F)cccc2F)=NC1c1ccc(-c2ccc(OC(F)(F)F)cc2)cc1 (stereo partly drawn) [Example 56]
3.26 | CNC(=O)[C@H]1CC(c2c(F)cccc2F)=NC1c1ccc(-c2ccc(OC(F)(F)F)cc2)cc1 (stereo partly drawn) [Example 58]

Same assay, conditions: reversed-phase HPLC column (C 18), pH 7.5, pH 7.5 (marked b), 0.01-molar aqueous phosphate buffer/acetonitrile, 43° C.

SMILES | chromatographic logP
CCCCCCOC(=O)[C@H]1CC(c2c(F)cccc2F)=NC1c1ccc(-c2ccc(OC(F)(F)F)cc2)cc1 (stereo partly drawn) [Example 15] | 6.18
O=C(OC1CCCC1)[C@H]1CC(c2c(F)cccc2F)=NC1c1ccc(-c2ccc(OC(F)(F)F)cc2)cc1 (stereo partly drawn) [Example 18] | 5.54
O=C(OC1CCCCC1)[C@H]1CC(c2c(F)cccc2F)=NC1c1ccc(-c2ccc(OC(F)(F)F)cc2)cc1 (stereo partly drawn) [Example 19] | 5.91

Now from value to compound:

chromatographic logP | SMILES
5.49 | CCCCOC(=O)[C@H]1CC(c2c(F)cccc2F)=NC1c1ccc(-c2ccc(OC(F)(F)F)cc2)cc1 (stereo partly drawn) [Example 14]
5.48 | CCC(C)OC(=O)[C@H]1CC(c2c(F)cccc2F)=NC1c1ccc(-c2ccc(OC(F)(F)F)cc2)cc1 (stereo partly drawn) [Example 16]
5.47 | CC(C)COC(=O)[C@H]1CC(c2c(F)cccc2F)=NC1c1ccc(-c2ccc(OC(F)(F)F)cc2)cc1 (stereo partly drawn) [Example 17]
5.77 | CC(C)[C@H](C)OC(=O)[C@H]1CC(c2c(F)cccc2F)=NC1c1ccc(-c2ccc(OC(F)(F)F)cc2)cc1 (stereo partly drawn) [Example 55]
5.86 | CC(C)[C@@H](C)OC(=O)[C@H]1CC(c2c(F)cccc2F)=NC1c1ccc(-c2ccc(OC(F)(F)F)cc2)cc1 (stereo partly drawn) [Example 56]
